# Results: article PMC7688211, “Multiple Transporters and Glycoside Hydrolases Are Involved in Arabinoxylan-Derived Oligosaccharide Utilization in Bifidobacterium pseudocatenulatum” (Applied and Environmental Microbiology, 2020)
# Where two headings read alike, the source gives them in different places.
# Legend:
# Assay in all cases: SPR (Biacore T200), SBP immobilised on CM5
# Details in all cases: 25°C, 20 mM phosphate/citrate pH 6.5, 150 mM NaCl, 0.005% Tween 20
# BpAXBP1 = molecular target: T1, BpAXBP1 (Bifidobacterium pseudocatenulatum, UniProt A0A087BW54); format: binding
# T1 construct: predicted signal peptide removed, N-terminal His tag (pCold I), E. coli BL21; primers encode native start ACGGGTN after IEGRH linker and end KNLKVKK; immobilised on CM5 chip
# T1 sequence (A0A087BW54 25-563): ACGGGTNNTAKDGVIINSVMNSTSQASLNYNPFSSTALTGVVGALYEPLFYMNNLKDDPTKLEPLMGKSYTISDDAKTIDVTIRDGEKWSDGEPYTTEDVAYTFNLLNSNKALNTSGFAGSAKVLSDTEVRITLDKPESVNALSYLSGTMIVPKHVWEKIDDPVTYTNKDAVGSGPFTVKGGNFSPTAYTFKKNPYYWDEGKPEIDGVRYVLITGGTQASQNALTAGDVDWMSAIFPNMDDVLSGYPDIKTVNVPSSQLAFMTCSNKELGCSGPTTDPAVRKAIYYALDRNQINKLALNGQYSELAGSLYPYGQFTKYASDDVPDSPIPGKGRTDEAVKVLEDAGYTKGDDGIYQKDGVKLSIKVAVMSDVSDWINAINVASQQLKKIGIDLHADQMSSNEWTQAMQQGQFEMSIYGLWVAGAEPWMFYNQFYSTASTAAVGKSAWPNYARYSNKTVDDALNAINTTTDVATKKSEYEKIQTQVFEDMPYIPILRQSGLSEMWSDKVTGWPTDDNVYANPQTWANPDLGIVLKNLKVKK
# BpAXBP3 = molecular target: T2, BpAXBP3 (Bifidobacterium pseudocatenulatum, UniProt A0ABY6YA63); format: binding
# T2 construct: gene msmE_1; predicted signal peptide removed, N-terminal His tag (pCold I), E. coli BL21; primers encode native start KDDKTITFW after IEGRH linker and end AASKG; immobilised on CM5 chip
# T2 sequence (A0ABY6YA63 29-424): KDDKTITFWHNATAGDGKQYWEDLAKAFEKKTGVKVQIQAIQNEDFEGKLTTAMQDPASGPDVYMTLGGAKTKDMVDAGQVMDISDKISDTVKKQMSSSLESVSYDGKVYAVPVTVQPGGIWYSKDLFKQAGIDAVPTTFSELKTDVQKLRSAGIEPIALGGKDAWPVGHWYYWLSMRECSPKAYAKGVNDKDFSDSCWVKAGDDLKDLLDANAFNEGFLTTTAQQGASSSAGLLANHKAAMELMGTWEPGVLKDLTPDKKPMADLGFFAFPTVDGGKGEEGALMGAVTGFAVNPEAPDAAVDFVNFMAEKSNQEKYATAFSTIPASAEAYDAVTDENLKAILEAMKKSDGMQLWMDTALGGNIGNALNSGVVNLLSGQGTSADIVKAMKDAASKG
# BpAXBP2 = molecular target: T3, BpAXBP2; design: species or system Bifidobacterium pseudocatenulatum
# T3 construct: gene BBPC_RS02280; predicted signal peptide removed, N-terminal His tag (pCold I), E. coli BL21; primers encode native start ASKDEN after IEGRH linker and end ALPTE; immobilised on CM5 chip
Structure (SMILES),Kd (BpAXBP1; read-out: Kd) [µM],Kd (BpAXBP3) [µM],Kd (BpAXBP2) [µM],Kd (BpAXBP1)
"OC1OC[C@@H](O[C@@H]2OC[C@@H](O[C@@H]3OC[C@@H](O)[C@H](O)[C@H]3O)[C@H](O)[C@H]2O)[C@H](O)[C@H]1O (stereo partly drawn) [XOS3, xylotriose]",18.7,< 100,–,–
"OC1OC[C@@H](O[C@@H]2OC[C@@H](O[C@@H]3OC[C@@H](O[C@@H]4OC[C@@H](O[C@@H]5OC[C@@H](O)[C@H](O)[C@H]5O)[C@H](O)[C@H]4O)[C@H](O)[C@H]3O)[C@H](O)[C@H]2O)[C@H](O)[C@H]1O (stereo partly drawn) [XOS5, xylopentaose]",1.5,< 100,–,–
"OC1OC[C@@H](O[C@@H]2OC[C@@H](O[C@@H]3OC[C@@H](O[C@@H]4OC[C@@H](O)[C@H](O)[C@H]4O)[C@H](O)[C@H]3O)[C@H](O)[C@H]2O)[C@H](O)[C@H]1O (stereo partly drawn) [XOS4, xylotetraose]",0.63,< 100,–,–
"OC1OC[C@@H](O[C@@H]2OC[C@@H](O[C@@H]3OC[C@@H](O[C@@H]4OC[C@@H](O[C@@H]5OC[C@@H](O[C@@H]6OC[C@@H](O)[C@H](O)[C@H]6O)[C@H](O)[C@H]5O)[C@H](O)[C@H]4O)[C@H](O)[C@H]3O)[C@H](O)[C@H]2O)[C@H](O)[C@H]1O (stereo partly drawn) [XOS6, xylohexaose]",8.2,< 100,–,–
"OC1OC[C@@H](O[C@@H]2OC[C@@H](O)[C@H](O)[C@H]2O)[C@H](O)[C@H]1O (stereo partly drawn) [XOS2, xylobiose]",–,< 100,–,BpAXBP1 exhibited a high affinity for XOS and AXOS4

# More lines, main results first:
Kd (BpAXBP1; read-out: Kd) [µM],Kd (BpAXBP3) [µM],Kd (BpAXBP2) [µM],Structure (SMILES),Kd (BpAXBP1)
7.5,< 100,103,"OC[C@@H]1O[C@@H](O[C@@H]2[C@@H](O)[C@H](O[C@@H]3CO[C@@H](O[C@@H]4COC(O)[C@H](O)[C@H]4O)[C@H](O)[C@H]3O)OC[C@H]2O[C@@H]2OC[C@@H](O)[C@H](O)[C@H]2O)[C@H](O)[C@H]1O (stereo partly drawn) [AXOS4, 3^3-α-L-arabinofuranosyl-xylotetraose]",–
–,< 100,0.66,"OC[C@@H]1O[C@@H](O[C@@H]2[C@@H](O)[C@H](O[C@@H]3COC(O)[C@H](O)[C@H]3O)OC[C@H]2O)[C@H](O)[C@H]1O (stereo partly drawn) [AXOS1, 3^2-α-L-arabinofuranosyl-xylobiose]",–
–,< 100,19.2,"OC[C@@H]1O[C@@H](O[C@H]2[C@H](O[C@@H]3CO[C@@H](O[C@@H]4COC(O)[C@H](O)[C@H]4O)[C@H](O)[C@H]3O)OC[C@@H](O)[C@@H]2O)[C@H](O)[C@H]1O (stereo partly drawn) [AXOS3, 2^3-α-L-arabinofuranosyl-xylotriose]",–
–,–,0.69,"OC[C@@H]1O[C@@H](O[C@@H]2[C@@H](O[C@@H]3O[C@@H](CO)[C@H](O)[C@H]3O)[C@H](O[C@@H]3CO[C@@H](O[C@@H]4COC(O)[C@H](O)[C@H]4O)[C@H](O)[C@H]3O)OC[C@H]2O)[C@H](O)[C@H]1O (stereo partly drawn) [AXOS2, 2^3,3^3-di-α-L-arabinofuranosyl-xylotriose]",–
